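1) Cells in 96-well plates. 2) Compound, 48 h, 5 concentrations. 3) Linear interpolation between surrounding doses. 4) Unreached endpoint = highest concentration. GI50 = concentration required for 50% inhibition of growth.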 Calls of active or inactive are those of the source. Rule as the data show it: active = GI50 up to about 1.1 µM and inactive = higher.
Legend:
Assay in all cases: growth of human tumour cells (NCI), 48 h
[1] = tested on: EKVX
[2] = tested on: XF498
[3] = tested on: HL-60
[4] = tested on: HCC 2998
[5] = tested on: HCT-116
[6] = tested on: HT-29
[7] = tested on: SNB-75
[8] = tested on: LXFL 529
[9] = tested on: SW-620
[10] = tested on: Malme-3M
[11] = tested on: OVCAR-8
[12] = tested on: NCI-H460
[13] = tested on: NCI-H226
[14] = tested on: K562
[15] = tested on: HCT-15
[16] = tested on: OVCAR-3
[17] = tested on: SNB-78
[18] = tested on: 786-0
[19] = tested on: A498
[20] = tested on: CAKI-1
[21] = tested on: OVCAR-5
[22] = tested on: KM-20L2
[23] = tested on: HOP-62
[24] = tested on: ACHN
[25] = tested on: SK-OV-3
[26] = tested on: SF-295
[27] = tested on: SK-MEL-5
[28] = tested on: M14
[29] = tested on: UO-31
[30] = tested on: SF-539
[31] = tested on: RPMI-8226
[32] = tested on: DMS-114
[33] = tested on: CCRF-CEM
[34] = tested on: UACC-257
[35] = tested on: TK-10
[36] = tested on: RXF 393
[37] = tested on: NCI-H23
[38] = tested on: A549
[39] = tested on: KM12
[40] = tested on: DMS-273
[41] = tested on: DLD-1
[42] = tested on: U-251
[43] = tested on: MOLT-4
[44] = tested on: SK-MEL-28
[45] = tested on: SK-MEL-2
[46] = tested on: IGROV-1
[47] = tested on: OVCAR-4
[48] = tested on: M19-MEL
[49] = tested on: UACC-62
[50] = tested on: COLO 205
[51] = tested on: SR
[52] = tested on: LOX IMVI
[53] = tested on: SN12C
[54] = tested on: NCI-H522
[55] = tested on: HOP-18
[56] = tested on: SF-268
[57] = tested on: SNB-19
[58] = tested on: HOP-92

## Cc1[nH]c2ccccc2c1/C=C/c1c(C)[nH]c2ccccc12
[1]
  GI50: > 100 µM (inactive)
[2]
  GI50: > 100 µM (inactive)
[3]
  GI50: > 100 µM (inactive)
[4]
  GI50: > 100 µM (inactive)
[5]
  GI50: > 100 µM (inactive)
[6]
  GI50: > 100 µM (inactive)
[7]
  GI50: 31 µM (inactive)
[8]
  GI50: > 100 µM (inactive)
[9]
  GI50: > 100 µM (inactive)
[10]
  GI50: > 100 µM (inactive)
[11]
  GI50: > 100 µM (inactive)
[12]
  GI50: > 100 µM (inactive)
[13]
  GI50: > 100 µM (inactive)
[14]
  GI50: > 100 µM (inactive)
[15]
  GI50: > 100 µM
[16]
  GI50: > 100 µM (inactive)
[17]
  GI50: > 100 µM (inactive)
[18]
  GI50: > 100 µM (inactive)
[19]
  GI50: > 100 µM (inactive)
[20]
  GI50: > 100 µM (inactive)
[21]
  GI50: > 100 µM (inactive)
[22]
  GI50: > 100 µM (inactive)
[23]
  GI50: > 100 µM (inactive)
[24]
  GI50: > 100 µM (inactive)
[25]
  GI50: > 100 µM (inactive)
[26]
  GI50: > 100 µM (inactive)
[27]
  GI50: > 100 µM (inactive)
[28]
  GI50: > 100 µM (inactive)
[29]
  GI50: > 100 µM (inactive)
[30]
  GI50: > 100 µM (inactive)
[31]
  GI50: > 100 µM (inactive)
[32]
  GI50: > 100 µM (inactive)
[33]
  GI50: 20.7 µM (inactive)
[34]
  GI50: > 100 µM (inactive)
[35]
  GI50: > 100 µM (inactive)
[36]
  GI50: > 100 µM (inactive)
[37]
  GI50: > 100 µM (inactive)
[38]
  GI50: > 100 µM (inactive)
[39]
  GI50: > 100 µM (inactive)
[40]
  GI50: > 100 µM (inactive)
[41]
  GI50: > 100 µM (inactive)
[42]
  GI50: > 100 µM (inactive)
[43]
  GI50: > 100 µM (inactive)
[44]
  GI50: > 100 µM (inactive)
[45]
  GI50: > 100 µM (inactive)
[46]
  GI50: > 100 µM (inactive)
[47]
  GI50: > 100 µM (inactive)
[48]
  GI50: > 100 µM (inactive)
[49]
  GI50: > 100 µM (inactive)

## CC#Cc1c(O)c2c(c(O)c1C#CC)C(=O)c1ccccc1C2=O
[1]
  GI50: > 100 µM (inactive)
[2]
  GI50: > 100 µM (inactive)
[3]
  GI50: > 100 µM (inactive)
[50]
  GI50: > 100 µM (inactive)
[4]
  GI50: > 100 µM (inactive)
[51]
  GI50: > 100 µM (inactive)
[8]
  GI50: 11 µM (inactive)
[9]
  GI50: > 100 µM (inactive)
[10]
  GI50: > 100 µM (inactive)
[11]
  GI50: > 100 µM (inactive)
[14]
  GI50: > 100 µM (inactive)
[15]
  GI50: > 100 µM
[18]
  GI50: > 100 µM (inactive)
[20]
  GI50: > 100 µM (inactive)
[21]
  GI50: > 100 µM (inactive)
[22]
  GI50: > 100 µM (inactive)
[23]
  GI50: > 100 µM (inactive)
[24]
  GI50: > 100 µM (inactive)
[25]
  GI50: > 100 µM (inactive)
[27]
  GI50: > 100 µM (inactive)
[28]
  GI50: > 100 µM (inactive)
[31]
  GI50: 54.5 µM (inactive)
[32]
  GI50: > 100 µM (inactive)
[33]
  GI50: > 100 µM (inactive)
[35]
  GI50: > 100 µM (inactive)
[38]
  GI50: > 100 µM (inactive)
[40]
  GI50: > 100 µM (inactive)
[41]
  GI50: > 100 µM (inactive)
[42]
  GI50: > 100 µM (inactive)
[43]
  GI50: > 100 µM (inactive)
[45]
  GI50: > 100 µM (inactive)
[46]
  GI50: > 100 µM (inactive)
[47]
  GI50: > 100 µM (inactive)
[52]
  GI50: 93.5 µM (inactive)
[53]
  GI50: > 100 µM (inactive)
[48]
  GI50: > 100 µM (inactive)
[49]
  GI50: 64.6 µM (inactive)

## C=CCN(C)CN(C)c1nc(N(C)C)nc(N(C)C)n1
[1]
  GI50: > 100 µM (inactive)
[3]
  GI50: 21.1 µM (inactive)
[50]
  GI50: 86.3 µM (inactive)
[4]
  GI50: 53.2 µM (inactive)
[5]
  GI50: 60.7 µM (inactive)
[6]
  GI50: > 100 µM (inactive)
[7]
  GI50: 44.1 µM (inactive)
[51]
  GI50: 49.2 µM (inactive)
[8]
  GI50: 26.1 µM (inactive)
[54]
  GI50: 11.2 µM (inactive)
[9]
  GI50: 36.3 µM (inactive)
[10]
  GI50: > 100 µM (inactive)
[11]
  GI50: > 100 µM (inactive)
[12]
  GI50: 11.8 µM (inactive)
[14]
  GI50: > 100 µM (inactive)
[15]
  GI50: 34.3 µM
[16]
  GI50: 64.6 µM (inactive)
[55]
  GI50: > 100 µM (inactive)
[17]
  GI50: > 100 µM (inactive)
[18]
  GI50: 43.9 µM (inactive)
[19]
  GI50: > 100 µM (inactive)
[20]
  GI50: > 100 µM (inactive)
[21]
  GI50: > 100 µM (inactive)
[22]
  GI50: > 100 µM (inactive)
[23]
  GI50: > 100 µM (inactive)
[56]
  GI50: > 100 µM (inactive)
[24]
  GI50: > 100 µM (inactive)
[25]
  GI50: > 100 µM (inactive)
[26]
  GI50: > 100 µM (inactive)
[27]
  GI50: > 100 µM (inactive)
[57]
  GI50: > 100 µM (inactive)
[28]
  GI50: 50.7 µM (inactive)
[29]
  GI50: > 100 µM (inactive)
[30]
  GI50: > 100 µM (inactive)
[31]
  GI50: 46.6 µM (inactive)
[32]
  GI50: 19.7 µM (inactive)
[33]
  GI50: 33 µM (inactive)
[34]
  GI50: > 100 µM (inactive)
[35]
  GI50: > 100 µM (inactive)
[37]
  GI50: > 100 µM (inactive)
[38]
  GI50: > 100 µM (inactive)
[39]
  GI50: > 100 µM (inactive)
[40]
  GI50: 22.3 µM (inactive)
[41]
  GI50: 49.4 µM (inactive)
[42]
  GI50: > 100 µM (inactive)
[58]
  GI50: > 100 µM (inactive)
[43]
  GI50: > 100 µM (inactive)
[44]
  GI50: > 100 µM (inactive)
[45]
  GI50: > 100 µM (inactive)
[46]
  GI50: > 100 µM (inactive)
[47]
  GI50: 79.8 µM (inactive)
[52]
  GI50: 54 µM (inactive)
[53]
  GI50: > 100 µM (inactive)
[48]
  GI50: > 100 µM (inactive)
[49]
  GI50: > 100 µM (inactive)

## Cc1nn(C)c(=O)c2nn(-c3ccccc3)c(C)c12
[1]
  GI50: > 100 µM (inactive)
[3]
  GI50: > 100 µM (inactive)
[50]
  GI50: > 100 µM (inactive)
[4]
  GI50: > 100 µM (inactive)
[5]
  GI50: > 100 µM (inactive)
[6]
  GI50: > 100 µM (inactive)
[7]
  GI50: > 100 µM (inactive)
[51]
  GI50: > 100 µM (inactive)
[8]
  GI50: > 100 µM (inactive)
[54]
  GI50: > 100 µM (inactive)
[9]
  GI50: > 100 µM (inactive)
[10]
  GI50: > 100 µM (inactive)
[11]
  GI50: > 100 µM (inactive)
[12]
  GI50: > 100 µM (inactive)
[13]
  GI50: > 100 µM (inactive)
[14]
  GI50: > 100 µM (inactive)
[15]
  GI50: > 100 µM
[16]
  GI50: > 100 µM (inactive)
[55]
  GI50: > 100 µM (inactive)
[17]
  GI50: > 100 µM (inactive)
[18]
  GI50: > 100 µM (inactive)
[19]
  GI50: > 100 µM (inactive)
[20]
  GI50: > 100 µM (inactive)
[21]
  GI50: > 100 µM (inactive)
[22]
  GI50: > 100 µM (inactive)
[23]
  GI50: > 100 µM (inactive)
[56]
  GI50: > 100 µM (inactive)
[24]
  GI50: > 100 µM (inactive)
[25]
  GI50: > 100 µM (inactive)
[26]
  GI50: > 100 µM (inactive)
[27]
  GI50: > 100 µM (inactive)
[57]
  GI50: > 100 µM (inactive)
[28]
  GI50: > 100 µM (inactive)
[29]
  GI50: > 100 µM (inactive)
[30]
  GI50: > 100 µM (inactive)
[31]
  GI50: > 100 µM (inactive)
[32]
  GI50: > 100 µM (inactive)
[33]
  GI50: > 100 µM (inactive)
[34]
  GI50: > 100 µM (inactive)
[35]
  GI50: > 100 µM (inactive)
[36]
  GI50: > 100 µM (inactive)
[37]
  GI50: > 100 µM (inactive)
[38]
  GI50: > 100 µM (inactive)
[39]
  GI50: > 100 µM (inactive)
[40]
  GI50: > 100 µM (inactive)
[41]
  GI50: > 100 µM (inactive)
[42]
  GI50: > 100 µM (inactive)
[43]
  GI50: > 100 µM (inactive)
[44]
  GI50: > 100 µM (inactive)
[45]
  GI50: > 100 µM (inactive)
[46]
  GI50: > 100 µM (inactive)
[47]
  GI50: > 100 µM (inactive)
[52]
  GI50: > 100 µM (inactive)
[53]
  GI50: > 100 µM (inactive)
[48]
  GI50: > 100 µM (inactive)
[49]
  GI50: > 100 µM (inactive)
